These results are taken from ChEMBL document CHEMBL1136896, “Synthesis and biological evaluation of arylhydrazinocyanoacrylates and N-aryl pyrazolecarboxylates” (2009).

Common to all, as to format: functional
In assay [1] the test system is Amaranthus retroflexus. The assay is described as follows: Herbicidal activity against Amaranthus retroflexus at 1.5 kg/hectare administered preemergence of first true leaf measured after 10 days. The settings on record: pre-emergence, 240 h.
The subject of assay [2] is Medicago sativa. The assay is described as follows: Herbicidal activity against Medicago sativa at 1.5 kg/hectare administered postemergence of first true leaf measured after 10 days. The settings on record: post-emergence, 240 h.
Assay [3] concerns Digitaria sanguinalis. In words: Herbicidal activity against Digitaria sanguinalis (L.) Scop. at 1.5 kg/hectare administered preemergence of first true leaf measured after 10 days. The settings on record: pre-emergence, 240 h.
Assay [4] concerns HL-60. The assay is described as follows: Antitumor activity against human HL60 cells at 1 uM/L after 72 hrs by MTT assay. The settings on record: HL-60, 72 h. On the technique in general: Formazan colour is commonly taken as a measure of viable cells.
The subject of assay [5] is Bel-7402. In words: Antitumor activity against human Bel7402 cells at 10 uM/L after 72 hrs by MTT assay. The settings on record: Bel-7402, 72 h.
In assay [6] the test system is Brassica napus. In words: Herbicidal activity against Brassica napus L. at 1.5 kg/hectare administered preemergence of first true leaf measured after 10 days. The settings on record: pre-emergence, 240 h.
Assay [7] deals with Cucumis sativus. The assay is described as follows: Growth regulatory activity in cucumber assessed as root growth at 10 mg/L incubated in dark for 5 days.
Assay [8] relates to Bel-7402. In words: Antitumor activity against human Bel7402 cells at 1 uM/L after 72 hrs by MTT assay. The settings on record: Bel-7402, 72 h.
Assay [9] deals with Bel-7402. In words: Antitumor activity against human Bel7402 cells at 100 uM/L after 72 hrs by MTT assay. The settings on record: Bel-7402, 72 h.
Assay [10] has as its system Medicago sativa. The assay is described as follows: Herbicidal activity against Medicago sativa at 1.5 kg/hectare administered preemergence of first true leaf measured after 10 days. The settings on record: pre-emergence, 240 h.
For assay [11], the system named is Botryosphaeria berengeriana. In words: Fungicidal activity against Physalospora pyricola assessed as inhibition of mycelium growth at 50 mg/L after 72 hrs.
Assay [12] relates to HL-60. The assay is described as follows: Antitumor activity against human HL60 cells at 10 uM/L after 72 hrs by MTT assay. The settings on record: HL-60, 72 h.
The test system of assay [13] is Alternaria solani. The assay is described as follows: Fungicidal activity against Alternaria solani assessed as inhibition of mycelium growth at 50 mg/L after 72 hrs.
The test system of assay [14] is Fusarium graminearum. The assay is described as follows: Fungicidal activity against Gibberella zeae assessed as inhibition of mycelium growth at 50 mg/L after 72 hrs.
Assay [15] deals with Mycosphaerella arachidis. The assay is described as follows: Fungicidal activity against Cercospora arachidicola assessed as inhibition of mycelium growth at 50 mg/L after 72 hrs.
Assay [16] concerns Brassica napus. In words: Herbicidal activity against Brassica napus at 1.5 kg/hectare administered postemergence of first true leaf measured after 10 days. The settings on record: post-emergence, 240 h.
The subject of assay [17] is Digitaria sanguinalis. The assay is described as follows: Herbicidal activity against Digitaria sanguinalis at 1.5 kg/hectare administered postemergence of first true leaf measured after 10 days. The settings on record: post-emergence, 240 h.
Assay [18] relates to Bel-7402. The assay is described as follows: Antitumor activity against human Bel7402 cells at 1000 uM/L after 72 hrs by MTT assay. The settings on record: Bel-7402, 72 h.
Assay [19] has as its system Cladosporium cucumerinum. The assay is described as follows: Fungicidal activity against Cladosporium cucumerinum assessed as inhibition of mycelium growth at 50 mg/L after 72 hrs.
For assay [20], the system named is HL-60. In words: Antitumor activity against human HL60 cells at 1000 uM/L after 72 hrs by MTT assay. The settings on record: HL-60, 72 h.
In assay [21] the test system is Amaranthus retroflexus. In words: Herbicidal activity against Amaranthus retroflexus at 1.5 kg/hectare administered postemergence of first true leaf measured after 10 days. The settings on record: post-emergence, 240 h.
Assay [22] has as its system HL-60. The assay is described as follows: Antitumor activity against human HL60 cells at 100 uM/L after 72 hrs by MTT assay. The settings on record: HL-60, 72 h.

What is called inhibition is how much of the control response was suppressed.

Take `CCOCCOC(=O)/C(C#N)=C(/CC)NNc1cc(Cl)c(Cl)cc1Cl`: the inhibition at 1500 g/ha in assay [1] was 5.9%; in [2], 4.7%; in [3], 3.8%; in assay [6] it was 0%; in assay [10], 0%; in assay [16], 0%. Moreover, the figures for the inhibition at 1500 g/ha in [17] and in assay [21] were 0% and 15.6%, respectively. Moreover, the values for the inhibition at 1 µM in [4] and in assay [8] were 8.3% and 0%, respectively. In addition, the inhibition at 10 µM in [5] was found to be 0%; in assay [12], 11.8%. Moreover, the Activity in [7] is reported as -39%. The values for the inhibition at 100 µM in assay [9] and in [22] were 0% and 7.3%, respectively. Moreover, the inhibition at 50 µg/mL in assay [11] was determined as 36%; in [13], 10%; in assay [14], 9.6%; in assay [15], 21.3%; in assay [19], 13.9%. The values for the inhibition at 1000 µM in assay [18] and in assay [20] were 94.5% and 80.4%, respectively.
`CCOCCOC(=O)/C(C#N)=C(\NNc1ccc(Cl)cc1Cl)C(C)C`: the inhibition at 1500 g/ha in [1] was determined as 0%; in assay [2], 7.5%; in [3], 3.8%; in assay [6] it was 0%; in assay [10], 0%; in assay [16], 1.6%. The figures for the inhibition at 1500 g/ha in assay [17] and in [21] were 17.9% and 3.9%, respectively. The results for the inhibition at 1 µM in [4] and in assay [8] were 0% and 5.3%, respectively. The results for the inhibition at 10 µM in assay [5] and in [12] were 4.3% and 6%, respectively. The Activity in assay [7] was -27.8%. For the same compound, the inhibition at 100 µM turned out to be 6.5% in [9] and 17.6% in [22]. In addition, the inhibition at 50 µg/mL in [11] was found to be 73.3%; in assay [13] it was 40%; in assay [14], 4.8%; in assay [15] it was 51.5%; in assay [19], 22.2%. Besides, the inhibition at 1000 µM in [18] is 45.9%; in [20] it was 73.2%.
Regarding `CCOCCOC(=O)/C(C#N)=C(/CC)NNc1cccc(Cl)c1Cl`, the inhibition at 1500 g/ha in [1] is 5.9%; in assay [2] it was 3.3%; in assay [3], 0%; in [6], 0%; in assay [10] it was 0%; in assay [16], 4.3%. The inhibition at 1500 g/ha in assay [17] was 5.4%; in [21], 15.6%. Further, the values for the inhibition at 1 µM in assay [4] and in [8] were 21.2% and 11.6%, respectively. For the same compound, the inhibition at 10 µM in assay [5] amounted to 12.1%; in [12], 26.8%. The Activity in assay [7] is recorded as -12.7%. The inhibition at 100 µM in assay [9] was found to be 24.9%; in assay [22] it was 50%. The inhibition at 50 µg/mL turned out to be 65.3% in [11]; 20% in assay [13]; 14.4% in [14]; 24.2% in [15]; 13.9% in assay [19]. Also, the inhibition at 1000 µM in assay [18] stood at 55.3%; in [20], 69.4%.
As to `CCOCCOC(=O)c1c(C(C)C)nn(-c2ccc(Cl)cc2Cl)c1N`, the inhibition at 1500 g/ha in [1] was 0%; in [2], 16.6%; in [3] it was 0%; in assay [6] it was 0%; in assay [10], 0%; in assay [16] it was 0%. Also, the inhibition at 1500 g/ha in assay [17] and in assay [21] was 0% each time. The results for the inhibition at 1 µM in [4] and in [8] were 4.4% and 5.5%, respectively. Further, the inhibition at 10 µM in assay [5] is 0%; in assay [12], 4.4%. In assay [7], the Activity is on record as -2.4%. Also, the figures for the inhibition at 100 µM in assay [9] and in assay [22] were 4.2% and 11.8%, respectively. For the same compound, the inhibition at 50 µg/mL in assay [11] is 9.3%; in [13], 28%; in assay [14] it was 26.7%; in assay [15] it was 44.1%; in assay [19] it was 30.9%. In addition, the inhibition at 1000 µM in assay [18] amounted to 45.6%; in assay [20], 56.8%.
Consider `CCOCCOC(=O)/C(C#N)=C(/CC)NNc1ccc(Cl)cc1Cl`, for which the inhibition at 1500 g/ha in [1], in assay [2], in assay [3], in assay [6], in assay [10] and in assay [16] was 0% in each case. Moreover, the values for the inhibition at 1500 g/ha in [17] and in assay [21] were 0% and 18%, respectively. Moreover, the inhibition at 1 µM in assay [4] and in [8] was 0% throughout. Further, the inhibition at 10 µM in assay [5] and in assay [12] was 0% in each case. The Activity in [7] is reported as -5.2%. The inhibition at 100 µM in [9] and in assay [22] was 0% throughout. Also, the inhibition at 50 µg/mL is 76% in assay [11]; 40% in assay [13]; 28.6% in assay [14]; 51.5% in [15]; 38.9% in [19]. For the same compound, the inhibition at 1000 µM in assay [18] was determined as 0%; in assay [20], 57.2%.
In the case of `CCOCCOC(=O)c1c(SC)nn(-c2ccc(Cl)cc2Cl)c1N`, the inhibition at 1500 g/ha in assay [1] is 0%; in assay [2], 0%; in assay [3], 0%; in assay [6], 30%; in [10], 0%; in [16] it was 0%. For the same compound, the inhibition at 1500 g/ha in [17] and in [21] was 0% in each case. Further, the inhibition at 1 µM was found to be 4.3% in [4] and 0% in assay [8]. Further, the values for the inhibition at 10 µM in assay [5] and in assay [12] were 0% and 8.4%, respectively. For the same compound, the Activity in [7] turned out to be 17.8%. Besides, the inhibition at 100 µM was determined as 0% in [9] and 16.9% in assay [22]. Also, the inhibition at 50 µg/mL in assay [11] was 46.7%; in assay [13] it was 16%; in assay [14] it was 42.2%; in assay [15] it was 47.1%; in assay [19], 32.7%. Besides, the figures for the inhibition at 1000 µM in assay [18] and in assay [20] were 46.7% and 56.1%, respectively.
Turning to `CCOCCOC(=O)/C(C#N)=C(\NNc1cccc(Cl)c1Cl)C(C)C`, the inhibition at 1500 g/ha in assay [1] came to 0%; in assay [2] it was 5.1%; in assay [3] it was 0%; in assay [6], 0%; in [10], 0%; in assay [16], 0.2%. Also, the inhibition at 1500 g/ha was found to be 16.1% in assay [17] and 22.7% in assay [21]. Further, the inhibition at 1 µM amounted to 24.3% in assay [4] and 14.7% in [8]. In addition, the inhibition at 10 µM in assay [5] stood at 15.1%; in [12] it was 28.7%. The Activity in [7] is 72.9%. The inhibition at 100 µM came out at 19% in [9] and 36.2% in [22]. Also, the inhibition at 50 µg/mL amounted to 66.7% in assay [11]; 35% in assay [13]; 14.4% in assay [14]; 36.4% in assay [15]; 25% in [19]. In addition, the values for the inhibition at 1000 µM in assay [18] and in assay [20] were 49.1% and 48.8%, respectively.
In the case of `CCOCCOC(=O)c1c(SC)nn(-c2ccc(C)cc2C)c1N`, the inhibition at 1500 g/ha was found to be 0% in assay [1]; 0% in assay [2]; 0% in [3]; 0% in assay [6]; 0% in assay [10]; 24.1% in assay [16]. Besides, the inhibition at 1500 g/ha in assay [17] and in assay [21] was 0% in each case. For the same compound, the values for the inhibition at 1 µM in [4] and in assay [8] were 9.4% and 0%, respectively. For the same compound, the inhibition at 10 µM in [5] was determined as 0%; in assay [12], 21%. Besides, the Activity in [7] is recorded as 42.2%. Besides, the inhibition at 100 µM in assay [9] was 0%; in [22], 49.9%. Further, the inhibition at 50 µg/mL turned out to be 9.3% in assay [11]; 8% in assay [13]; 46.7% in [14]; 35.3% in assay [15]; 10.9% in [19]. In addition, the inhibition at 1000 µM is 32.9% in assay [18] and 43.5% in [20].
